Results taken from patent US20050159345A1 (Boehringer Ingelheim International GmbH, priority 2002, published 2005).

Experiments:
HCV replicon 1b = experiment: Cell-based HCV 1b RNA replicon assay; details: Hepatitis C virus, 72 h; Huh-7-derived replicon cells, 3 day incubation, HCV RNA by RT-PCR
Description: (§1) These cells were used to establish a sensitive HCV RNA replication cell-based assay for testing candidate test compounds.
(§2) Huh7 cells that stably maintain a subgenomic HCV replicon were established as previously described (Lohman et al. 1999; WO 02/052015). The cells were seeded into a 96 well cell culture cluster at 1×10^4 cells per well in DMEM complemented with 10% FBS, PenStrep (Life Technologies) and […] Geneticin. Cells were incubated in a 5% CO2 incubator at 37° C. until addition of various concentrations of the test compound.
(§3) The test compound was prepared for use in the assay as follows. The test compound in 100% DMSO was added diluted in assay Medium for a final DMSO concentration of 0.5% and the solution was sonicated for 15 min and filtered through a […] Millipore Filter Unit. Serial dilutions of the test compounds were prepared using Assay Medium (containing 0.5% DMSO).
(§4) Cell culture medium was aspirated from the 96-well plate containing the cells and the appropriate dilution of test compound in assay medium was transferred to independent wells of the cell culture plate which was incubated at 37° with 5% CO2.
(§5) Following a 3 day-incubation period, the cells were washed with PBS and total cellular RNA was extracted with the RNeasy Mini Kit® and Qiashredder® from Qiagen. RNA from each well was eluted in 50 μL of H2O. RNA was quantified by optical density at 260 nm on the Cary 1E® UV-Visible spectrophotometer. The HCV RNA replicon copy number was evaluated by real-time RT-PCR with the Abi Prism® 7700 Sequence Detection System. The TAQMAN E® RT-PCR kit provides a system for the detection and analysis of RNA. Direct detection of the reverse transcription polymerase chain reaction (RT-PCR) product with no downstream processing was accomplished by monitoring the increase in fluorescence of a dye-labeled DNA probe. The nucleotide sequence of both primers and probe was located in the 5′ region of the HCV genome. The replicon copy number was then evaluated using a standard curve made with known amounts of replicon copy (supplemented with 50 ng of wild type Huh-7 RNA) assayed in the same reaction mix. The following thermal cycle parameters were used for the RT-PCR reaction on the ABI Prism® 7700 Sequence Detection System. Conditions were optimized for HCV detection. Quantification is based on the threshold cycle, where the amplification plot crosses a defined fluorescence threshold. Comparison of the threshold cycles provides a highly sensitive measure of relative template concentration in different samples. Monitoring during early cycles, when PCR fidelity is at its highest, provides precise data for accurate quantification. The relative template concentration can be converted to real numbers by using the standard curve of HCV with known number of copy.
(§6) The level of inhibition (% inhibition) of each well containing test compound was calculated with the following equation (CN═HCV Replicon copy number): [formula]
(§7) The calculated % inhibition values were then used to determine EC50, slope factor (n) and maximum inhibition (Imax) by the non-linear regression routine NLIN procedure of SAS using the following equation: [formula]

HCV replicon 1a = experiment: Cell-based HCV 1a RNA replicon assay; details: Hepatitis C virus, 72 h; Huh-7-derived replicon cells, 3 day incubation, HCV RNA by RT-PCR
Description: as §1, §2, §3, §4, §5, §6, §7

Row | SMILES | EC50 (HCV replicon 1b) [nM] | EC50 (HCV replicon 1a) [nM]
1 | COc1ccc2c(O[C@@H]3C[C@H]4C(=O)N[C@]5(C(=O)NS(=O)(=O)C6CC6)CC5/C=C\CCCCC[C@H](NC(=O)OC5CCCC5)C(=O)N4C3)cc(-c3csc(NC(C)C)n3)nc2c1 (stereo partly drawn) | 1.1 | 0.7
2 | COc1ccc2c(O[C@@H]3C[C@H]4C(=O)N[C@]5(C(=O)NS(C)(=O)=O)CC5/C=C\CCCCC[C@H](NC(=O)OC5CCCC5)C(=O)N4C3)cc(-c3csc(NC(C)C)n3)nc2c1 (stereo partly drawn) [VII] | 3.3 | 3.2
3 | COc1ccc2c(O[C@@H]3C[C@H]4C(=O)N[C@]5(C(=O)NS(=O)(=O)c6ccccc6)CC5/C=C\CCCCC[C@H](NC(=O)OC5CCCC5)C(=O)N4C3)cc(-c3csc(NC(C)C)n3)nc2c1 (stereo partly drawn) [VI] | 3 | 2.2
